According to patent US20090023704A1, “Novel Compounds 737” (ASTRAZENECA AB, priority 2007, published 2009):

target: T1, GABAB receptor (GABABR1a/GABABR2 heterodimer) (Homo sapiens, UniProt O75899+Q9UBS5); assay: [35S]-GTPγS binding assay, potency of PAM (GABA dose-response curves with and without test compound); assay type: biochemical; conditions: potency of the positive allosteric modulator; GABA dose-response in presence of test compound
T1 construct: expressed in transfected cells
Source text: GABABR1a and GABABR2 were cloned from human brain cDNA and subcloned into pCI-Neo (Promega) and pALTER-1 (Promega), respectively. A GABABR1a-Gαqi5 fusion protein expression vector was constructed using the pCI-Neo-GABABR1a cDNA plasmid and pLEC1-Gαqi5 (Molecular Devices, CA). In order to make the Gαqi5 pertussis toxin insensitive, Cys356 was mutated to Gly using standard PCR methodology with the primers 5′-[…]-3′ (forward) and 5′-GCGGCCG […]-3′ (reverse). The Gαqi5mut cDNA was ligated into the BamHI and NotI sites of pcDNA3.0 (Invitrogen). The GABAB R1a coding sequence was amplified by PCR from pCI-Neo-GABABR1a using the primers, 5′-[…]-3′ (forward) and 5′-[…]-3′ (reverse) and subcloned into the BamHI site of pcDNA3.0-Gαqi5mut.
For generation of a cell line expressing the GABABR1a/GABABR2 heterodimer, GABABR1a plasmid DNA (4 μg) GABABR2 plasmid DNA (4 μg) and lipofectamine (24 μl) were mixed in 5 ml OptiMEM and incubated for 45 minutes at room temperature. The cells were exposed to the transfection medium for 5 hours, which then was replaced with culture medium. The cells were cultured for an additional 10 days before selection agents (300 μg/ml hygromycin and 400 μg/ml geneticin) were added. Twenty-four days after transfection, single cell sorting into 96-well plates by flow cytometry was performed using a FACS Vantage SE (Becton Dickinson, Palo Alto, Calif.). After expansion, the GABAB receptor functional response was tested using the FLIPR assay described below. The clone with the highest functional response was collected, expanded and then subcloned by single cell sorting. The clonal cell line with the highest peak response in the FLIPR was used in the present study.
For generation of a stable cell line expressing GABABR1a-Gαqi5 fusion protein and GABABR2, GABABR1a-Gαqi5mut plasmid DNA (8 μg) GABABR2 plasmid DNA (8 μg) and lipofectamine (24 μl) were mixed in 5 ml OptiMEM and incubated for 45 minutes at room temperature. The cells were exposed to the transfection medium for 5 hours, which then was replaced with culture medium. After forty-eight hours, the cells were detached and seeded in 6 well plates (2000 cells/well) and grown in culture medium supplemented with geneticin (400 μg/ml) and zeocin (250 μg/ml). After 4 days, cells from single colonies were collected and transferred to a 24-well plate. After 10 days, the cell clones were seeded in T-25 flasks and grown for another 16 days before they were tested for GABAB receptor mediated functional response. […] The clonal cell line that gave the highest peak response in the FLIPR was used in the present study.
[^35S]-GTPγS binding assays were performed at 30° C. for 45 min in membrane buffer (100 mM NaCl, 5 mM MgCl2, 1 mM EDTA, 50 mM HEPES, pH 7.4) containing 0.025 μg/μl of membrane protein (prepared from the cell lines described above) with 0.01% bovine serum albumin (fatty acid free), 10 μM GDP, 10 μM DTT and 0.53 nM [^35S]-GTPγS (Amersham-Pharmacia Biotech) in a final volume of 200 μl. Non-specific binding was determined in the presence of 20 μM GTPγS. The reaction was started by the addition of GABA at concentration between 1 mM and 0.1 nM in the presence or absence of the required concentration of PAM. The reaction was terminated by addition of ice-cold wash buffer (50 mM Tris-HCl, 5 mM MgCl2, 50 mM NaCl, pH 7.4) followed by rapid filtration under vacuum through Printed Filtermat A glass fiber filters (Wallac) (0.05% PEI treated) using a Micro 96 Harvester (Skatron Instruments). The filters were dried for 30 min at 50° C., then a paraffin scintillant pad was melted onto the filters and the bound radioactivity was determined using a 1450 Microbeta Trilux (Wallac) scintillation counter.
GABA dose-response curves in the presence and absence of test compounds were constructed using the 4-parameter logistic equation, y=ymax+((ymin−ymax)/1+(x/C)^D), where C=EC50 and D=slope factor.

T1 sequence (Q9UBS5 15-961 limits assumed): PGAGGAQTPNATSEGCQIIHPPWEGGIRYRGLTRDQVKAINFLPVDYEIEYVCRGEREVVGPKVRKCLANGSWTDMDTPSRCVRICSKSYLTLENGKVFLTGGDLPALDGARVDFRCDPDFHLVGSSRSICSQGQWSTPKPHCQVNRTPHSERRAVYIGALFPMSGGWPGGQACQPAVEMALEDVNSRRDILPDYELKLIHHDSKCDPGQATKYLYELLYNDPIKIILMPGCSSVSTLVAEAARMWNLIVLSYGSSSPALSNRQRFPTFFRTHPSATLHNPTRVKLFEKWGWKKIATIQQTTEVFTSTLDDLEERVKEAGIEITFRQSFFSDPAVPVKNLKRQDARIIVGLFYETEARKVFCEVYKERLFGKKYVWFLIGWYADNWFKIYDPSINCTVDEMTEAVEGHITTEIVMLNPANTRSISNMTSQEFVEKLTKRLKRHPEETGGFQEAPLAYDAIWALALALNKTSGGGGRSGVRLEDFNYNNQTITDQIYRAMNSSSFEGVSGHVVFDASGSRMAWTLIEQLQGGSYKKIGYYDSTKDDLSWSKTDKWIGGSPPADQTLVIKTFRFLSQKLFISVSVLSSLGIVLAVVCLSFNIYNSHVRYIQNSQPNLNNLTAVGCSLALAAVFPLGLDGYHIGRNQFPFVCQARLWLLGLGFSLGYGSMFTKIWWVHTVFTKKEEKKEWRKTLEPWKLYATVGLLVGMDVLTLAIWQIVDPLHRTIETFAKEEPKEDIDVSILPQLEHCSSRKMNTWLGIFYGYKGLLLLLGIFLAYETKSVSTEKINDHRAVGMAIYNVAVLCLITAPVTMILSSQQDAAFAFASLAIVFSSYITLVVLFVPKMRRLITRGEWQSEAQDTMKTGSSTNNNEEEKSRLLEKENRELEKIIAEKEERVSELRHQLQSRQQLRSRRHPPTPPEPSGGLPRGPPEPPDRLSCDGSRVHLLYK
T1 sequence (O75899 42-941): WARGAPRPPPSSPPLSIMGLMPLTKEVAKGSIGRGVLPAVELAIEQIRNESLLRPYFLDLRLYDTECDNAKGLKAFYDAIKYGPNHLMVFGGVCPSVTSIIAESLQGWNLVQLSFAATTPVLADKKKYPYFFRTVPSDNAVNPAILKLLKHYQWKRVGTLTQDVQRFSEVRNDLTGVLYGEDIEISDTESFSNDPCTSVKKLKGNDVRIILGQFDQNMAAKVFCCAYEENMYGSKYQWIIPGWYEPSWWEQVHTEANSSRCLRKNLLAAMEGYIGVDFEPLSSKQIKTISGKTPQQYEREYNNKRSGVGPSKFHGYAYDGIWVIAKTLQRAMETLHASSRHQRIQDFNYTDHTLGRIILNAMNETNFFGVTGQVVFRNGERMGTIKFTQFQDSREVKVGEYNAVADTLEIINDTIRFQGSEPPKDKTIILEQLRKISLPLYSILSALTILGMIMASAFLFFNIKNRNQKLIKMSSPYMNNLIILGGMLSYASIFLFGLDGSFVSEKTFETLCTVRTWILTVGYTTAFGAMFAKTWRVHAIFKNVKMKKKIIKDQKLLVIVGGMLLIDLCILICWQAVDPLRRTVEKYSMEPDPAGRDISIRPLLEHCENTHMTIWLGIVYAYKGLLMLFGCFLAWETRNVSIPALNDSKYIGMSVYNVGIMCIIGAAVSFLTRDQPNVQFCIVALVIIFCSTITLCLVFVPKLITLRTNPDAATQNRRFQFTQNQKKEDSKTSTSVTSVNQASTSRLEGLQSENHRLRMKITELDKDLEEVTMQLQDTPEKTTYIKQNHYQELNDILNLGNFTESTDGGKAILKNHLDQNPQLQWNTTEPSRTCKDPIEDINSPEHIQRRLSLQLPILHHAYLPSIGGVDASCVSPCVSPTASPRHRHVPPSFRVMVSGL

| EC50 [µM] | Structure (SMILES) |
| --- | --- |
| 7.9 | CCc1nc2c(c(=O)n(Cc3ccc(Cl)cc3)c(=O)n2CCOC)n1C [Example 32, 1-(4-chlorobenzyl)-8-ethyl-3-(2-methoxyethyl)-7-methyl-3,7-dihydro-1H-purine-2,6-dione] |
| 11.3 | CCc1nc2c(c(=O)n(Cc3ccc(Cl)cc3)c(=O)n2CCCS(=O)(=O)C(C)(C)C)n1C [Example 34, 3-[3-(tert-butylsulfonyl)propyl]-1-(4-chlorobenzyl)-8-ethyl-7-methyl-3,7-dihydro-1H-purine-2,6-dione] |
| 1.7 | CCc1nc2c(c(=O)n(Cc3ccc(Cl)cc3)c(=O)n2CCn2cccc2)n1C [Example 37, 1-(4-chlorobenzyl)-8-ethyl-7-methyl-3-[2-(1H-pyrrol-1-yl)ethyl]-3,7-dihydro-1H-purine-2,6-dione] |
| 6.8 | CCc1nc2c(c(=O)n(Cc3ccc(Cl)cc3)c(=O)n2CCCO)n1C [Example 38, 1-(4-chlorobenzyl)-8-ethyl-3-(3-hydroxypropyl)-7-methyl-3,7-dihydro-1H-purine-2,6-dione] |
| 0.6 | CCc1nc2c(c(=O)n(Cc3ccc(Cl)c(Cl)c3)c(=O)n2CC(=O)C(C)(C)C)n1C [Example 40, 1-(3,4-Dichlorobenzyl)-3-(3,3-dimethyl-2-oxobutyl)-8-ethyl-7-methyl-3,7-dihydro-1H-purine-2,6-dione] |
| 2 | CCc1nc2c(c(=O)n(Cc3ccc(Cl)c(Cl)c3)c(=O)n2CCC(C)(C)C)n1C [Example 41, 1-(3,4-Dichlorobenzyl)-3-(3,3-dimethylbutyl)-8-ethyl-7-methyl-3,7-dihydro-1H-purine-2,6-dione] |
| 11.3 | CCc1nc2c(c(=O)n(Cc3ccc(Cl)c(Cl)c3)c(=O)n2CC(=O)[C@]23C[C@@H]4C[C@H](C[C@@H](C4)C2)C3)n1C [Example 42, 3-{2-[(3S,5S,7S)-Adamantan-1-yl]-2-oxoethyl}-1-(3,4-dichlorobenzyl)-8-ethyl-7-methyl-3,7-dihydro-1H-purine-2,6-dione] |
| 12.5 | CCc1nc2c(c(=O)n(Cc3ccc(Cl)c(Cl)c3)c(=O)n2CCCCC2CCCCC2)n1C [Example 44, 3-(4-Cyclohexylbutyl)-1-(3,4-dichlorobenzyl)-8-ethyl-7-methyl-3,7-dihydro-1H-purine-2,6-dione] |
| 8.7 | CCc1nc2c(c(=O)n(Cc3ccc(Cl)cc3)c(=O)n2CCCN2CCN(c3ccccc3)CC2)n1C [Example 47, 1-(4-Chlorobenzyl)-8-ethyl-7-methyl-3-[3-(4-phenylpiperazin-1-yl)propyl]-3,7-dihydro-1H-purine-2,6-dione] |
| 13.4 | CCc1nc2c(c(=O)n(Cc3ccc(Cl)cc3)c(=O)n2CCCn2ccnc2)n1C [Example 49, 1-(4-Chlorobenzyl)-8-ethyl-3-[3-(1H-imidazol-1-yl)propyl]-7-methyl-3,7-dihydro-1H-purine-2,6-dione] |
| 10 | CCc1nc2c(c(=O)n(Cc3ccc(Cl)cc3)c(=O)n2CC(=O)N2CCC(F)(F)C2)n1C [Example 50, 1-(4-Chlorobenzyl)-3-[2-(3,3-difluoropyrrolidin-1-yl)-2-oxoethyl]-8-ethyl-7-methyl-3,7-dihydro-1H-purine-2,6-dione] |
| 11.9 | CCc1nc2c(c(=O)n(Cc3ccc(Cl)cc3)c(=O)n2CC(=O)N(C(C)C)C(C)C)n1C [Example 51, 2-[1-(4-Chlorobenzyl)-8-ethyl-7-methyl-2,6-dioxo-1,2,6,7-tetrahydro-3H-purin-3-yl]-N,N-diisopropylacetamide] |
| 5.89 | CCCn1c(=O)n(Cc2ccc(Cl)cc2)c(=O)c2c1nc(CC)n2C [Example 54, 1-(4-chlorobenzyl)-8-ethyl-7-methyl-3-propyl-3,7-dihydro-1H-purine-2,6-dione] |
| 15 | CCCn1c(=O)n(Cc2ccc(OCc3ccccc3)cc2)c(=O)c2c1nc(CC)n2C [Example 56, 1-[4-(Benzyloxy)benzyl]-8-ethyl-7-methyl-3-propyl-3,7-dihydro-1H-purine-2,6-dione] |
| 5.9 | CCCn1c(=O)n(Cc2cnn(-c3ccc(Cl)cc3)c2C(F)(F)F)c(=O)c2c1nc(CC)n2C [Example 59, 1-{[1-(4-Chlorophenyl)-5-(trifluoromethyl)-1H-pyrazol-4-yl]methyl}-8-ethyl-7-methyl-3-propyl-3,7-dihydro-1H-purine-2,6-dione] |

The next lines start with the compound.

| Structure (SMILES) | EC50 [µM] |
| --- | --- |
| CCc1nc2c(c(=O)n(Cc3ccc(Cl)cc3)c(=O)n2Cc2ccc(C(F)(F)F)cc2)n1C [Example 31, 1-(4-chlorobenzyl)-8-ethyl-7-methyl-3-[4-(trifluoromethyl)benzyl]-3,7-dihydro-1H-purine-2,6-dione] | 5.5 |
| CCC(=O)Cn1c(=O)n(Cc2ccc(Cl)cc2)c(=O)c2c1nc(CC)n2C [Example 33, 1-(4-chlorobenzyl)-8-ethyl-7-methyl-3-(2-oxobutyl)-3,7-dihydro-1H-purine-2,6-dione] | 3.7 |
| CCc1nc2c(c(=O)n(Cc3ccc(Cl)cc3)c(=O)n2CC(=O)OC(C)(C)C)n1C [Example 35, tert-butyl [1-(4-chlorobenzyl)-8-ethyl-7-methyl-2,6-dioxo-1,2,6,7-tetrahydro-3H-purin-3-yl]acetate] | 5.6 |
| CCc1nc2c(c(=O)n(Cc3ccc(Cl)cc3)c(=O)n2CCCOc2ccc(C(F)(F)F)cc2)n1C [Example 36, 1-(4-chlorobenzyl)-8-ethyl-7-methyl-3-{3-[4-(trifluoromethyl)phenoxy]propyl}-3,7-dihydro-1H-purine-2,6-dione] | 6.6 |
| CCc1nc2c(c(=O)n(Cc3ccc(Cl)cc3)c(=O)n2Cc2scc(S(=O)(=O)C(C)C)c2Cl)n1C [Example 39, 1-(4-chlorobenzyl)-3-{[3-chloro-4-(isopropylsulfonyl)-2-thienyl]methyl}-8-ethyl-7-methyl-3,7-dihydro-1H-purine-2,6-dione] | 1.8 |
| CCc1nc2c(c(=O)n(Cc3ccc(Cl)c(Cl)c3)c(=O)n2CC[Si](C)(C)C)n1C [Example 43, 1-(3,4-Dichlorobenzyl)-8-ethyl-7-methyl-3-[2-(trimethylsilyl)ethyl]-3,7-dihydro-1H-purine-2,6-dione] | 2.7 |
| CCc1nc2c(c(=O)n(Cc3ccc(Cl)cc3)c(=O)n2CCCN2CCCC2)n1C [Example 46, 1-(4-chlorobenzyl)-8-ethyl-7-methyl-3-(3-pyrrolidin-1-ylpropyl)-3,7-dihydro-1H-purine-2,6-dione] | 16.9 |
| CCc1nc2c(c(=O)n(Cc3ccc(Cl)cc3)c(=O)n2CCCN2CCC3(CC2)OCCO3)n1C [Example 48, 1-(4-Chlorobenzyl)-3-[3-(1,4-dioxa-8-azaspiro[4.5]dec-8-yl)propyl]-8-ethyl-7-methyl-3,7-dihydro-1H-purine-2,6-dione] | 12.1 |
| CCc1nc2c(c(=O)n(Cc3ccc(Cl)cc3)c(=O)n2CC(OC)OC)n1C [Example 52, 1-(4-chlorobenzyl)-3-(2,2-dimethoxyethyl)-8-ethyl-7-methyl-3,7-dihydro-1H-purine-2,6-dione] | 8.8 |
| CCCn1c(=O)n(Cc2ccc(Cl)c(Cl)c2)c(=O)c2c1nc(CC)n2C [Example 57, 1-(3,4-Dichlorobenzyl)-8-ethyl-7-methyl-3-propyl-3,7-dihydro-1H-purine-2,6-dione] | 2.6 |
| CCCn1c(=O)n(Cc2ccc3ccccc3c2)c(=O)c2c1nc(CC)n2C [Example 58, 8-Ethyl-7-methyl-1-(2-naphthylmethyl)-3-propyl-3,7-dihydro-1H-purine-2,6-dione] | 2.7 |
